In US9029337B2, “Modulation of factor 7 expression” (Isis Pharmaceuticals, Inc., priority 2007, dated 2015):
Strand notation (5' to 3'): a small letter for the sugar, then the base; units joined by * are phosphorothioate-linked, units joined directly phosphodiester-linked; [ ] holds rarer units or linkages, { } end groups; capitals alone tell only the bases. e = 2'-O-(2-methoxyethyl) (MOE); [5mC] = 5-methylcytosine; d = 2'-deoxy (DNA)

System: human Factor 7 mRNA
Assay: Antisense inhibition of human Factor 7 mRNA in HepB3 cells, 50 nM antisense oligonucleotide, lipofectin
Format: cell-based
Conditions: Table 1, 50 nM, lipofectin, approximately 24 hours, relative to untreated control cells
How it was run: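 Readout is percent reduction of Factor 7 message compared with untreated cells, after correction for total RNA content quantified by RIBOGREEN®. Cultures were seeded at 4,000 cells per well and treated for about 24 hours before RNA extraction.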

Substance | % Inhibition
407892 (antisense e[5mC]*e[5mC]*e[5mC]*e[5mC]*eA*dT*dT*d[5mC]*dT*dG*dG*d[5mC]*dA*dT*dG*eG*eA*e[5mC]*eT*eT) [compound 407892] | 68%
407897 (antisense eG*e[5mC]*eT*eT*eG*dG*dT*dG*d[5mC]*d[5mC]*d[5mC]*dG*dT*dG*dT*eG*eG*eT*e[5mC]*eA) [compound 407897] | 77%
407940 (antisense eT*eG*eT*eG*eA*dA*dG*d[5mC]*dT*dG*dG*dG*dA*dA*dG*e[5mC]*eA*eG*eG*eT) [compound 407940] | 62%
407894 (antisense eG*eT*eT*e[5mC]*e[5mC]*dG*dG*d[5mC]*d[5mC]*d[5mC]*dT*d[5mC]*dG*dA*dA*eG*eG*e[5mC]*eA*eG) [compound 407894] | 77%
407628 (antisense eT*eG*eA*eT*eG*dA*d[5mC]*d[5mC]*dT*dG*d[5mC]*dG*d[5mC]*d[5mC]*dA*e[5mC]*e[5mC]*e[5mC]*eG*e[5mC]) [compound 407628] | 38%
407635 (antisense eT*eG*eG*e[5mC]*e[5mC]*d[5mC]*d[5mC]*dA*dG*d[5mC]*dT*dG*dA*d[5mC]*dG*eA*eT*eG*e[5mC]*e[5mC]) [compound 407635] | 64%
407893 (antisense eT*e[5mC]*eG*eA*eA*dG*dG*d[5mC]*dA*dG*dG*dG*dA*dG*dG*e[5mC]*eA*eG*eA*eA) [compound 407893] | 33%
407645 (antisense eG*eA*eG*eA*eG*d[5mC]*dT*dA*dA*dA*d[5mC]*dA*dA*d[5mC]*d[5mC]*eG*e[5mC]*e[5mC]*eT*eT) [compound 407645] | 65%
407954 (antisense e[5mC]*eA*eG*eG*eG*dA*dG*dA*dG*dA*dA*d[5mC]*dA*dT*d[5mC]*e[5mC]*eA*eA*eT*eT) [compound 407954] | 39%
407623 (antisense eT*e[5mC]*e[5mC]*eA*eT*dT*d[5mC]*dA*d[5mC]*d[5mC]*dA*dA*d[5mC]*dA*dA*e[5mC]*eA*eG*eG*eA) [compound 407623] | 69%
407615 (antisense eG*eA*e[5mC]*eA*e[5mC]*d[5mC]*d[5mC]*d[5mC]*dG*dT*d[5mC]*dT*dG*d[5mC]*d[5mC]*eA*eG*e[5mC]*eA*eG) [compound 407615] | 65%
407942 (antisense e[5mC]*eA*e[5mC]*eA*eG*dG*dT*dG*dT*dG*d[5mC]*dG*dG*dA*dG*eG*eA*eG*eA*e[5mC]) [compound 407942] | 41%

Same assay, conditions: Table 6, 50 nM, lipofectin, approximately 24 hours

Substance | % Inhibition
422125 (antisense e[5mC]*eT*eG*eA*eG*d[5mC]*dG*d[5mC]*dG*dG*dA*dA*dG*dA*dA*eG*eG*eG*eA*e[5mC]) [compound 422125] | 8%
422194 (antisense e[5mC]*eT*eG*dA*dG*d[5mC]*dG*d[5mC]*dG*dG*dA*dA*dG*dA*dA*dG*dG*eG*eA*e[5mC]) [compound 422194] | 11%
422265 (antisense eG*e[5mC]*dG*dG*dA*dA*dG*dA*dA*dG*dG*dG*dA*d[5mC]*dG*eG*eA*eA*eG*eG) [compound 422265] | 34%
422276 (antisense eG*eG*dT*dT*dA*d[5mC]*dT*dG*dA*dG*d[5mC]*dG*d[5mC]*dG*dG*eA*eA*eG*eA*eA) [compound 422276] | 66%
422267 (antisense eG*e[5mC]*dG*d[5mC]*dG*dG*dA*dA*dG*dA*dA*dG*dG*dG*dA*e[5mC]*eG*eG*eA*eA) [compound 422267] | 38%
422118 (antisense e[5mC]*eG*eG*eA*eA*dG*dA*dA*dG*dG*dG*dA*d[5mC]*dG*dG*eA*eA*eG*eG*eT) [compound 422118] | 15%

Same assay, conditions: Table 13 (microwalk), 50 nM, lipofectin, approximately 24 hours

Substance | % Inhibition
422230 (antisense e[5mC]*eA*dT*dG*d[5mC]*dA*dT*dG*dG*dT*dG*dA*dT*dG*d[5mC]*eT*eT*e[5mC]*eT*eG) [compound 422230] | 65%

Same assay, conditions: gapmers targeted to nucleobases 4868 to 4899 of SEQ ID NO: 1, Table 8

Substance | % Inhibition of human Factor 7 mRNA levels
422213 (antisense eT*e[5mC]*eT*dG*d[5mC]*dA*dG*dG*dA*dG*d[5mC]*dG*dG*d[5mC]*d[5mC]*dT*dA*eA*eA*eT) [compound 422213] | 67%

Same assay, conditions: lipofectin, 50 nM antisense oligonucleotide, approximately 24 hours, Factor 7 mRNA by real-time RT-PCR (RTS 2927), relative to untreated control

Substance | % Inhibition
416528 (antisense eT*eG*eA*eT*eA*dA*dA*dA*d[5mC]*d[5mC]*dT*d[5mC]*dT*dG*dG*eA*e[5mC]*eA*e[5mC]*e[5mC]) [compound 416528] | 10%
416527 (antisense eG*eA*eG*e[5mC]*eT*dT*d[5mC]*d[5mC]*d[5mC]*dA*dA*dG*dT*dT*dG*eG*e[5mC]*eA*eG*eT) [compound 416527] | 49%
416517 (antisense eG*eG*eG*eT*eG*d[5mC]*dA*dG*dT*dA*dG*d[5mC]*dA*dG*dA*eT*eG*e[5mC]*eA*eA) [compound 416517] | 23%
416565 (antisense e[5mC]*eA*eG*eG*eA*dT*dG*d[5mC]*dT*d[5mC]*dA*dT*dG*dG*d[5mC]*eA*eG*eA*e[5mC]*eA) [compound 416565] | 0%
416432 (antisense eA*eG*e[5mC]*eA*e[5mC]*dT*dG*d[5mC]*dT*d[5mC]*d[5mC]*dT*d[5mC]*d[5mC]*dT*eT*eG*e[5mC]*eA*e[5mC]) [compound 416432] | 44%
416426 (antisense eA*eG*e[5mC]*e[5mC]*e[5mC]*dA*dA*dG*d[5mC]*dA*dG*dA*dA*dG*dG*e[5mC]*eA*eG*eA*eG) [compound 416426] | 34%
416498 (antisense eG*eG*e[5mC]*e[5mC]*eA*dG*dT*dG*dG*d[5mC]*d[5mC]*dA*dT*dG*d[5mC]*eA*eT*e[5mC]*e[5mC]*e[5mC]) [compound 416498] | 5%
416505 (antisense eG*e[5mC]*eA*eG*eA*dT*dT*dT*dG*d[5mC]*dA*dT*d[5mC]*dA*dG*eA*eA*eA*eA*eG) [compound 416505] | 45%
416569 (antisense eG*e[5mC]*e[5mC]*eT*eG*dG*dT*dG*dT*dG*d[5mC]*dA*d[5mC]*dA*d[5mC]*eA*eT*eT*eG*eT) [compound 416569] | 12%
416473 (antisense e[5mC]*e[5mC]*e[5mC]*eT*eG*d[5mC]*d[5mC]*d[5mC]*d[5mC]*dT*d[5mC]*dT*dG*dT*d[5mC]*e[5mC]*eA*eG*e[5mC]*eG) [compound 416473] | 61%
416435 (antisense e[5mC]*e[5mC]*e[5mC]*eA*eT*d[5mC]*dA*d[5mC]*dT*dG*dT*dA*dA*dG*dA*eA*eA*eT*e[5mC]*e[5mC]) [compound 416435] | 3%
416487 (antisense eG*e[5mC]*eA*eG*eG*dT*dG*d[5mC]*dT*d[5mC]*d[5mC]*d[5mC]*dA*dG*dG*eG*eT*e[5mC]*eT*e[5mC]) [compound 416487] | 39%

Same assay, conditions: oligonucleotides targeted to nucleobases 11830 to 11869 of SEQ ID NO: 1 (Table 9)

Substance | % Inhibition (human Factor 7 mRNA levels)
422246 (antisense e[5mC]*eT*dG*dA*dG*dG*dA*dG*dA*d[5mC]*dA*dA*dT*dG*dG*eT*e[5mC]*eA*eG*eG) [compound 422246] | 46%
422249 (antisense eT*eG*dG*d[5mC]*dT*dG*dA*dG*dG*dA*dG*dA*d[5mC]*dA*dA*eT*eG*eG*eT*e[5mC]) [compound 422249] | 52%
422165 (antisense eG*eG*eA*dG*dA*d[5mC]*dA*dA*dT*dG*dG*dT*d[5mC]*dA*dG*dG*dG*e[5mC]*eT*eG) [compound 422165] | 57%
422236 (antisense eA*eA*dT*dG*dG*dT*d[5mC]*dA*dG*dG*dG*d[5mC]*dT*dG*dG*eT*eT*eT*eT*eG) [compound 422236] | 44%
422094 (antisense e[5mC]*eA*eA*eT*eG*dG*dT*d[5mC]*dA*dG*dG*dG*d[5mC]*dT*dG*eG*eT*eT*eT*eT) [compound 422094] | 48%
422104 (antisense eG*eG*e[5mC]*eT*eG*dA*dG*dG*dA*dG*dA*d[5mC]*dA*dA*dT*eG*eG*eT*e[5mC]*eA) [compound 422104] | 59%

Same assay, conditions: oligonucleotides targeted to nucleobases 13760 to 13789 of SEQ ID NO: 1 (Table 10)

Substance | % Inhibition (human Factor 7 mRNA levels)
422109 (antisense e[5mC]*e[5mC]*e[5mC]*eG*e[5mC]*d[5mC]*dG*dG*d[5mC]*dT*d[5mC]*dT*dG*d[5mC]*dT*e[5mC]*eA*eT*e[5mC]*e[5mC]) [compound 422109] | 68%

Same assay, conditions: oligonucleotides targeted to nucleobases 14707 to 14732 of SEQ ID NO: 1 (Table 11)

Substance | % Inhibition (human Factor 7 mRNA levels)
422201 (antisense eG*e[5mC]*e[5mC]*dT*dG*dA*dG*dG*d[5mC]*d[5mC]*dA*dG*d[5mC]*dA*dG*dA*dT*e[5mC]*eA*e[5mC]) [compound 422201] | 71%
422206 (antisense e[5mC]*eA*eG*d[5mC]*dA*dG*d[5mC]*d[5mC]*dT*dG*dA*dG*dG*d[5mC]*d[5mC]*dA*dG*e[5mC]*eA*eG) [compound 422206] | 65%

Same assay, conditions: oligonucleotides targeted to nucleobases 15098 to 15122 of SEQ ID NO: 1 (Table 12)

Substance | % Inhibition (human Factor 7 mRNA levels)
422209 (antisense eA*eG*e[5mC]*dA*d[5mC]*dA*d[5mC]*dA*dT*dG*dG*dA*dG*dT*d[5mC]*dA*dG*e[5mC]*eA*eT) [compound 422209] | 47%
